Measurements taken from PubChem BioAssay (NCI).
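Where inhibition never reached the appropriate level, the endpoint shown equals the highest concentration tested. Otherwise, values were interpolated linearly from a five-concentration, 48-hour dose response in 96-well plates. Here, GI50 denotes the concentration required for 50% inhibition of growth. Definition used: TGI = concentration required for complete inhibition of growth.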

Key:
Experiment in all cases: NCI-60 cell line screen, 48 h
786-0 renal = system: 786-0 renal
A498 renal = system: A498 renal
A549 NSCLC = system: A549 NSCLC
ACHN renal = system: ACHN renal
BT-549 breast = system: BT-549 breast
CAKI-1 renal = system: CAKI-1 renal
CCRF-CEM leukemia = system: CCRF-CEM leukemia
COLO 205 colon = system: COLO 205 colon
DU-145 prostate = system: DU-145 prostate
EKVX NSCLC = system: EKVX NSCLC
HCC-2998 colon = system: HCC-2998 colon
HCT-15 colon = system: HCT-15 colon
HOP-62 NSCLC = system: HOP-62 NSCLC
HS 578T breast = system: HS 578T breast
HT29 colon = system: HT29 colon
IGROV1 ovarian = system: IGROV1 ovarian
K-562 leukemia = system: K-562 leukemia
KM12 colon = system: KM12 colon
M14 melanoma = system: M14 melanoma
MALME-3M melanoma = system: MALME-3M melanoma
MCF7 breast = system: MCF7 breast
MDA-MB-231 breast = system: MDA-MB-231 breast
MDA-MB-435 = system: MDA-MB-435
MOLT-4 leukemia = system: MOLT-4 leukemia
NCI-H226 lung = system: NCI-H226 lung
NCI-H23 lung = system: NCI-H23 lung
NCI-H460 lung = system: NCI-H460 lung
NCI-H522 lung = system: NCI-H522 lung
NCI/ADR-RES ovarian = system: NCI/ADR-RES ovarian
OVCAR-3 ovarian = system: OVCAR-3 ovarian
OVCAR-4 ovarian = system: OVCAR-4 ovarian
OVCAR-5 ovarian = system: OVCAR-5 ovarian
OVCAR-8 ovarian = system: OVCAR-8 ovarian
PC-3 prostate = system: PC-3 prostate
RPMI-8226 leukemia = system: RPMI-8226 leukemia
RXF 393 renal = system: RXF 393 renal
SF-268 CNS = system: SF-268 CNS
SF-295 CNS = system: SF-295 CNS
SF-539 CNS = system: SF-539 CNS
SK-MEL-2 melanoma = system: SK-MEL-2 melanoma
SK-MEL-28 melanoma = system: SK-MEL-28 melanoma
SK-MEL-5 melanoma = system: SK-MEL-5 melanoma
SK-OV-3 ovarian = system: SK-OV-3 ovarian
SN12C renal = system: SN12C renal
SNB-19 CNS = system: SNB-19 CNS
SNB-75 CNS = system: SNB-75 CNS
SR leukemia = system: SR leukemia
SW-620 colon = system: SW-620 colon
T-47D breast = system: T-47D breast
TK-10 renal = system: TK-10 renal
U251 CNS = system: U251 CNS
UACC-257 melanoma = system: UACC-257 melanoma
UACC-62 melanoma = system: UACC-62 melanoma
UO-31 renal = system: UO-31 renal

COc1cc2c(cc1OCc1ccccc1)N=C[C@@H]1C[C@@H](F)CN1C2=O
GI50 (786-0 renal): 189 nM
TGI (786-0 renal): 661 nM
GI50 (A498 renal): 1500 nM
TGI (A498 renal): 3480 nM
GI50 (A549 NSCLC): 829 nM
TGI (A549 NSCLC): 6980 nM
GI50 (ACHN renal): 242 nM
TGI (ACHN renal): 669 nM
TGI (BT-549 breast): 785 nM
GI50 (CAKI-1 renal): 6690 nM
TGI (CAKI-1 renal): 26100 nM
GI50 (CCRF-CEM leukemia): 355 nM
TGI (CCRF-CEM leukemia): 1590 nM
GI50 (COLO 205 colon): 583 nM
TGI (COLO 205 colon): 9640 nM
GI50 (DU-145 prostate): 144 nM
TGI (DU-145 prostate): 1660 nM
GI50 (EKVX NSCLC): 730 nM
TGI (EKVX NSCLC): 2290 nM
GI50 (HCC-2998 colon): 496 nM
TGI (HCC-2998 colon): 3020 nM
GI50 (HCT-15 colon): 282 nM
TGI (HCT-15 colon): 893 nM
GI50 (HOP-62 NSCLC): 236 nM
TGI (HOP-62 NSCLC): 2700 nM
TGI (HS 578T breast): 503 nM
GI50 (HT29 colon): 322 nM
TGI (HT29 colon): > 42800 nM
TGI (IGROV1 ovarian): 411 nM
GI50 (K-562 leukemia): 500 nM
TGI (K-562 leukemia): > 100000 nM
GI50 (KM12 colon): 1550 nM
TGI (KM12 colon): 4050 nM
GI50 (M14 melanoma): 158 nM
TGI (M14 melanoma): 402 nM
GI50 (MALME-3M melanoma): 1580 nM
TGI (MALME-3M melanoma): 3130 nM
GI50 (MCF7 breast): 275 nM
TGI (MCF7 breast): 2320 nM
GI50 (MDA-MB-231 breast): 232 nM
TGI (MDA-MB-231 breast): 553 nM
GI50 (MDA-MB-435): 857 nM
TGI (MDA-MB-435): 2390 nM
GI50 (MOLT-4 leukemia): 353 nM
TGI (MOLT-4 leukemia): > 100000 nM
GI50 (NCI-H226 lung): 197 nM
TGI (NCI-H226 lung): 447 nM
GI50 (NCI-H23 lung): 195 nM
TGI (NCI-H23 lung): 572 nM
GI50 (NCI-H460 lung): 1920 nM
TGI (NCI-H460 lung): 7130 nM
TGI (NCI-H522 lung): 187 nM
GI50 (NCI/ADR-RES ovarian): 265 nM
TGI (NCI/ADR-RES ovarian): 1090 nM
GI50 (OVCAR-3 ovarian): 315 nM
TGI (OVCAR-3 ovarian): 787 nM
GI50 (OVCAR-4 ovarian): 2310 nM
TGI (OVCAR-4 ovarian): 27400 nM
GI50 (OVCAR-5 ovarian): 298 nM
TGI (OVCAR-5 ovarian): 12100 nM
GI50 (OVCAR-8 ovarian): 565 nM
TGI (OVCAR-8 ovarian): 5890 nM
TGI (PC-3 prostate): 1020 nM
GI50 (RPMI-8226 leukemia): < 50.1 nM
GI50 (RXF 393 renal): 217 nM
TGI (RXF 393 renal): 511 nM
GI50 (SF-268 CNS): 184 nM
TGI (SF-268 CNS): 1000 nM
GI50 (SF-295 CNS): 678 nM
TGI (SF-295 CNS): 1850 nM
GI50 (SF-539 CNS): 1520 nM
TGI (SF-539 CNS): 4680 nM
GI50 (SK-MEL-2 melanoma): 279 nM
GI50 (SK-MEL-28 melanoma): 748 nM
TGI (SK-MEL-28 melanoma): 13700 nM
GI50 (SK-MEL-5 melanoma): 156 nM
TGI (SK-MEL-5 melanoma): 356 nM
GI50 (SK-OV-3 ovarian): 2810 nM
TGI (SK-OV-3 ovarian): 45800 nM
GI50 (SN12C renal): 273 nM
TGI (SN12C renal): 3400 nM
GI50 (SNB-19 CNS): 596 nM
TGI (SNB-19 CNS): 18200 nM
GI50 (SNB-75 CNS): 894 nM
TGI (SNB-75 CNS): > 100000 nM
GI50 (SR leukemia): 290 nM
TGI (SR leukemia): 1460 nM
TGI (SW-620 colon): 1210 nM
GI50 (T-47D breast): 577 nM
TGI (T-47D breast): 18700 nM
GI50 (TK-10 renal): 1490 nM
TGI (TK-10 renal): 4520 nM
GI50 (U251 CNS): 154 nM
TGI (U251 CNS): 400 nM
GI50 (UACC-257 melanoma): 569 nM
TGI (UACC-257 melanoma): 3000 nM
GI50 (UACC-62 melanoma): 183 nM
TGI (UACC-62 melanoma): 369 nM
TGI (UO-31 renal): 483 nM
